Test results published in patent US5384412A, “Saccharide intermediates in the formation of the calicheamicin and esperamicin oligosaccharides” (priority 1992, dated 1995).
Like-named read-outs stand apart in the source and are kept apart here.

Experiments:
[1] = test system: DNA; details: Zein et al., Science, 244:697 (1989), cited from earlier work
[2] = test system: duplex DNA; details: cited from earlier work
[3] = test system: 93 base-pair Sal I - Sph I double-stranded DNA fragment of pBR322; assay: DNase I footprinting of oligosaccharides on labeled DNA fragment; format: binding; details: for DNA binding selectivity from footprinting: footprinting studies, O-methyl glycoside; for protection against DNase I cleavage (footprinting): pre-incubated with DNA at 37° C. for 30 minutes, autoradiography
Description: Footprinting studies the O-methyl glycosides of saccharide Compounds 167a, 100, its C-4 epimer (100a) and a similar compound lacking the iodo group in Ring C, 100b, shown below, were designed to probe these questions.
The oligosaccharides 167a, 100, 100a, and 100b were obtained by chemical synthesis following procedures similar to those discussed before. The 93 base-pair Sal I - Sph I double-stranded DNA fragment of pBR322 was obtained enzymatically and was [5'-^32 P]-labeled on one strand. pBR322 DNA was cleaved at the unique Sal I site, dephosphorylated using calf intestine phosphatase, 5'-^32 P]-phosphorylated using T4 polynucleotide kinase and [g-^32 P ATP (4.5 ^m Ci/pmol), and cleaved again at the unique Sph I site. These precursors generated a 93 base-pair double-stranded fragment, [5'-^32 P]-labeled at the Sal I end, which was purified by gel electrophoresis in a nondenaturing 10 percent polyacrylamide gel and subsequent column chromatography on Sephadex G-25. The oligosaccharides were pre-incubated with the DNA fragment at 37° C. for 30 minutes and DNase I was added to cleave the DNA and generate footprinting patterns by autoradiography.
The degree of protection against DNase I digestion offered by both the natural and unnatural stereoisomers was determined by comparing the amount of radioactivity in adjacent lanes along the electrophoresis gel. The protected regions coincided only roughly with calicheamicin γ1^I recognition sequences [(a) Zein et al., Science, 240:1198 (1988); (b) Zein et al., Science, 244:697 (1989); (c) Ding et al., J. Am. Chem. Soc., 113:6617 (1991)], Schreiber [Hawley et al., Proc. Natl. Acad. Sci. U.S.A., 86:1105 (1989)] and observed calicheamicin γ1^I cleavage sites.

Row | Molecule | sequence specificity of DNA cleaving [1] | protection against DNase I cleavage (footprinting) [3] | also measured
1 | CCN[C@H]1CO[C@@H](O[C@H]2[C@H](O[C@H]3C#CC=CC#C[C@@]4(O)CC(=O)C(NC(=O)OC)=C3/C4=C\CSSSC)O[C@H](C)[C@@H](NO[C@H]3C[C@H](O)[C@H](SC(=O)c4c(C)c(I)c(O[C@@H]5O[C@@H](C)[C@H](O)[C@@H](OC)[C@H]5O)c(OC)c4OC)[C@@H](C)O3)[C@@H]2O)C[C@@H]1OC (stereo in doubt) [calicheamicin γ1^I, reference compound] | double DNA strand cuts at specific sequences | – | DNA binding site ([2]; double stranded DNA minor groove): anchors itself on the 5' side of a TCCT sequence
2 | CCN[C@H]1CO[C@@H](O[C@H]2[C@H](OC)O[C@H](C)[C@@H](NO[C@H]3C[C@H](O)[C@H](SC(=O)c4c(C)c(I)c(O[C@@H]5O[C@@H](C)[C@H](O)[C@@H](OC)[C@H]5O)c(OC)c4OC)[C@@H](C)O3)[C@@H]2O)C[C@@H]1OC [Compound 100] | – | concentration-dependent protection, presumably due to binding, in the region of three calicheamicin γ1^I binding sites: CTCT, TCCT and AGGA | DNA binding selectivity from footprinting [3]: selective binding of oligosaccharide Compound 100 with specific base sequences of DNA; DNA binding selectivity from footprinting ([3]; listed as calicheamicin oligosaccharide glycoside): binds specifically to DNA, the preferred saccharide binding sites do not coincide precisely with those observed for intact calicheamicin; interaction with duplex DNA ([2]; previous studies by the Ellestad, Schreiber, Kahne and Danishefsky groups): selective interactions of the calicheamicin γ1^I oligosaccharide with duplex DNA along specific sequences within the minor groove
3 | CCN[C@H]1CO[C@@H](O[C@H]2[C@H](OC)O[C@H](C)[C@H](NO[C@H]3C[C@H](O)[C@H](SC(=O)c4c(C)c(I)c(O[C@@H]5O[C@@H](C)[C@H](O)[C@@H](OC)[C@H]5O)c(OC)c4OC)[C@@H](C)O3)[C@@H]2O)C[C@@H]1OC [Compound 100a] | – | no protection at the same concentrations | –
4 | CCN[C@H]1CO[C@@H](O[C@H]2[C@H](OC)O[C@H](C)[C@@H](NO[C@H]3C[C@H](O)[C@H](SC(=O)c4c(C)cc(O[C@@H]5O[C@@H](C)[C@H](O)[C@@H](OC)[C@H]5O)c(OC)c4OC)[C@@H](C)O3)[C@@H]2O)C[C@@H]1OC [Compound 100b] | – | lack of protection under the same conditions | –
5 | esperamicin | no strong sequence specificity in DNA cleaving | – | sequence specificity of DNA cleaving ([1]; listed as Esperamicins): less sequence specific
